Test results published in patent US9283222B2 (priority 2006, dated 2016).

These compounds were tested against Recombinant Human Poly(ADP-Ribose) Polymerase (PARP), PARP-1 (Homo sapiens (Human), UniProt P09874). Settings: read-out: PARP-1 (Ki); Table 1; text calls the values EC50s.
Sequence of Recombinant Human Poly(ADP-Ribose) Polymerase (PARP), PARP-1 (P09874 whole entry): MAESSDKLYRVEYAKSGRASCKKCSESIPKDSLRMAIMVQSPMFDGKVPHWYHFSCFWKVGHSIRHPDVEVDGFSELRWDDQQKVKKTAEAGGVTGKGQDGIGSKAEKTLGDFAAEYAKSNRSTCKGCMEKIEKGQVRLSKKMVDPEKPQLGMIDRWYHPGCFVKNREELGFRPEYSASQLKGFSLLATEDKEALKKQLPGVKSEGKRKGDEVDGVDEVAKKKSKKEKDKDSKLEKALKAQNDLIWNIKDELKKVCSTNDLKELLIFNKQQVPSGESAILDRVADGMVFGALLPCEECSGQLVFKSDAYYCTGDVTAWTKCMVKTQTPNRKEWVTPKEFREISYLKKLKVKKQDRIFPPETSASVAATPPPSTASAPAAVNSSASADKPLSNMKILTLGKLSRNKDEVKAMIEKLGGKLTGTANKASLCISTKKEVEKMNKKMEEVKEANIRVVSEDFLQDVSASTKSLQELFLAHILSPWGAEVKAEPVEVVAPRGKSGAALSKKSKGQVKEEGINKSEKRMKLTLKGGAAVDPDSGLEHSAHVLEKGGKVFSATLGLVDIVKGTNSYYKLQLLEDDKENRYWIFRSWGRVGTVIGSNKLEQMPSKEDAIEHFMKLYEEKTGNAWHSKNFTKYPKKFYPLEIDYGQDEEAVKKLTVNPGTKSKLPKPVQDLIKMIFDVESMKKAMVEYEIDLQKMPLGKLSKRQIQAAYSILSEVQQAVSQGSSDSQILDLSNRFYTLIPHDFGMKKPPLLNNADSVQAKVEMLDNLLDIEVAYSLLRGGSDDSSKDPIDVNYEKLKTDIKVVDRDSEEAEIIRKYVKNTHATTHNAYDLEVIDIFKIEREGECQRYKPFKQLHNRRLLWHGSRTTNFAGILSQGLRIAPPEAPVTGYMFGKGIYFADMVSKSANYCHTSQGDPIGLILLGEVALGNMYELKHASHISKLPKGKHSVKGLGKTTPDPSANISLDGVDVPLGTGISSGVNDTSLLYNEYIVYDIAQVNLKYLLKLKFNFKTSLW

Question: For `Cn1cccc1C(=O)Nc1cccc(Cc2n[nH]c(=O)c3c2CCCC3)c1` [Example 201, 1-methyl-N-(3-((4-oxo-3,4,5,6,7,8-hexahydrophthalazin-1-yl)methyl)phenyl)-1H-pyrrole-2-carboxamide], which Ki is on record?
Answer: The Ki was 570 nM.

Question: With `Cc1cc(C(=O)Nc2cccc(Cc3n[nH]c(=O)c4c3CCCC4)c2)c(C)[nH]1` [Example 202, 2,5-dimethyl-N-(3-((4-oxo-3,4,5,6,7,8-hexahydrophthalazin-1-yl)methyl)phenyl)-1H-pyrrole-3-carboxamide] as the compound, how does the Ki read?
Answer: Its Ki is 93 nM.

Question: With `O=C(Nc1cccc(Cc2n[nH]c(=O)c3c2CCCC3)c1)c1nccs1` [Example 204, N-(3-((4-oxo-3,4,5,6,7,8-hexahydrophthalazin-1-yl)methyl)phenyl)-1,3-thiazole-2-carboxamide] as the compound, how does the Ki read?
Answer: The Ki was 203 nM.

Question: For `O=C(Nc1cccc(Cc2n[nH]c(=O)c3c2CCCC3)c1)c1cscn1` [Example 205, N-(3-((4-oxo-3,4,5,6,7,8-hexahydrophthalazin-1-yl)methyl)phenyl)-1,3-thiazole-4-carboxamide], which Ki is on record?
Answer: The Ki was 176 nM.

Question: How did the Ki turn out when `O=C(Nc1cccc(Cc2n[nH]c(=O)c3c2CCCC3)c1)c1cncs1` [Example 206, N-(3-((4-oxo-3,4,5,6,7,8-hexahydrophthalazin-1-yl)methyl)phenyl)-1,3-thiazole-5-carboxamide] was run?
Answer: Its Ki is 18 nM.

Question: Which Ki does the source give for `O=C(Nc1cccc(Cc2n[nH]c(=O)c3c2CCCC3)c1)c1ccno1` [Example 208, N-(3-((4-oxo-3,4,5,6,7,8-hexahydrophthalazin-1-yl)methyl)phenyl)isoxazole-5-carboxamide] here?
Answer: The Ki was 22 nM.

Question: `Cc1noc(C)c1C(=O)Nc1cccc(Cc2n[nH]c(=O)c3c2CCCC3)c1` [Example 209, 3,5-dimethyl-N-(3-((4-oxo-3,4,5,6,7,8-hexahydrophthalazin-1-yl)methyl)phenyl)isoxazole-4-carboxamide] was tested. Which Ki did it give?
Answer: The Ki was 395 nM.

Question: Which Ki does the source give for `O=C(Nc1cccc(Cc2n[nH]c(=O)c3c2CCCC3)c1)c1ccncc1` [Example 211, N-(3-((4-oxo-3,4,5,6,7,8-hexahydrophthalazin-1-yl)methyl)phenyl)isonicotinamide] here?
Answer: Its Ki is 98 nM.

Question: How did the Ki turn out when `O=C(Nc1cccc(Cc2n[nH]c(=O)c3c2CCCC3)c1)c1ncccc1O` [Example 212, 3-hydroxy-N-(3-((4-oxo-3,4,5,6,7,8-hexahydrophthalazin-1-yl)methyl)phenyl)pyridine-2-carboxamide] was run?
Answer: Its Ki is 65 nM.

Question: Which Ki does the source give for `O=C(Nc1cccc(Cc2n[nH]c(=O)c3c2CCCC3)c1)c1cccnc1O` [Example 213, 2-hydroxy-N-(3-((4-oxo-3,4,5,6,7,8-hexahydrophthalazin-1-yl)methyl)phenyl)nicotinamide] here?
Answer: Its Ki is 82 nM.

Question: `O=C(Nc1cccc(Cc2n[nH]c(=O)c3c2CCCC3)c1)c1ccc(O)nc1` [Example 214, 6-hydroxy-N-(3-((4-oxo-3,4,5,6,7,8-hexahydrophthalazin-1-yl)methyl)phenyl)nicotinamide] was tested. Which Ki did it give?
Answer: Its Ki is 7 nM.

Question: `O=C(Cc1ccccn1)Nc1cccc(Cc2n[nH]c(=O)c3c2CCCC3)c1` [Example 215, N-(3-((4-oxo-3,4,5,6,7,8-hexahydrophthalazin-1-yl)methyl)phenyl)-2-pyridin-2-ylacetamide] was tested. Which Ki did it give?
Answer: The Ki was 85 nM.

Question: `O=C(Cc1cccnc1)Nc1cccc(Cc2n[nH]c(=O)c3c2CCCC3)c1` [Example 216, N-(3-((4-oxo-3,4,5,6,7,8-hexahydrophthalazin-1-yl)methyl)phenyl)-2-pyridin-3-ylacetamide] was tested. Which Ki did it give?
Answer: The Ki was 82 nM.

Question: For `Cc1cnc(C(=O)Nc2cccc(Cc3n[nH]c(=O)c4c3CCCC4)c2)cn1` [Example 217, 5-methyl-N-(3-((4-oxo-3,4,5,6,7,8-hexahydrophthalazin-1-yl)methyl)phenyl)pyrazine-2-carboxamide], which Ki is on record?
Answer: Its Ki is 5 nM.

Question: With `O=C(Nc1cccc(Cc2n[nH]c(=O)c3c2CCCC3)c1)c1c[nH]c2ccccc12` [Example 218, N-(3-((4-oxo-3,4,5,6,7,8-hexahydrophthalazin-1-yl)methyl)phenyl)-1H-indole-3-carboxamide] as the compound, how does the Ki read?
Answer: Its Ki is 86 nM.

Question: `Cc1c(C(=O)Nc2cccc(Cc3n[nH]c(=O)c4c3CCCC4)c2)cnn1-c1ccccc1` [Example 219] was tested. Which Ki did it give?
Answer: Its Ki is 9 nM.

Question: `O=C(Nc1cccc(Cc2n[nH]c(=O)c3c2CCCC3)c1)C1=Cc2cc(Cl)ccc2OC1` [Example 220, 6-chloro-N-(3-((4-oxo-3,4,5,6,7,8-hexahydrophthalazin-1-yl)methyl)phenyl)-2H-chromene-3-carboxamide] was tested. Which Ki did it give?
Answer: The Ki was 14 nM.

Question: Which Ki does the source give for `CN(C)CCC(=O)Nc1cccc(Cc2n[nH]c(=O)c3c2CCCC3)c1` [Example 221] here?
Answer: The Ki was 1540 nM.

Question: Which Ki does the source give for `Cc1ccc(C(=O)Nc2cccc(Cc3n[nH]c(=O)c4c3CCCC4)c2)c(O)c1` [Example 225, 2-hydroxy-4-methyl-N-(3-((4-oxo-3,4,5,6,7,8-hexahydrophthalazin-1-yl)methyl)phenyl)benzamide] here?
Answer: Its Ki is 41 nM.

Question: For `CC(=O)c1ccc(C(=O)Nc2cccc(Cc3n[nH]c(=O)c4c3CCCC4)c2)cc1` [Example 226, 4-acetyl-N-(3-((4-oxo-3,4,5,6,7,8-hexahydrophthalazin-1-yl)methyl)phenyl)benzamide], which Ki is on record?
Answer: Its Ki is 40 nM.

Question: Which Ki does the source give for `COc1cc(C(=O)Nc2cccc(Cc3n[nH]c(=O)c4c3CCCC4)c2)ccc1C` [Example 227, 3-methoxy-4-methyl-N-(3-((4-oxo-3,4,5,6,7,8-hexahydrophthalazin-1-yl)methyl)phenyl)benzamide] here?
Answer: The Ki was 60 nM.

Question: How did the Ki turn out when `CCOc1ccc(C(=O)Nc2cccc(Cc3n[nH]c(=O)c4c3CCCC4)c2)cc1` [Example 228, 4-ethoxy-N-(3-((4-oxo-3,4,5,6,7,8-hexahydrophthalazin-1-yl)methyl)phenyl)benzamide] was run?
Answer: Its Ki is 98 nM.

Question: `COc1ccc(C(=O)Nc2cccc(Cc3n[nH]c(=O)c4c3CCCC4)c2)cc1F` [Example 229, 3-fluoro-4-methoxy-N-(3-((4-oxo-3,4,5,6,7,8-hexahydrophthalazin-1-yl)methyl)phenyl)benzamide] was tested. Which Ki did it give?
Answer: Its Ki is 49 nM.

Question: Which Ki does the source give for `O=C(Nc1cccc(Cc2n[nH]c(=O)c3c2CCCC3)c1)c1cccc2ccccc12` [Example 230, N-(3-((4-oxo-3,4,5,6,7,8-hexahydrophthalazin-1-yl)methyl)phenyl)-1-naphthamide] here?
Answer: Its Ki is 96 nM.

Question: `O=C(Nc1cccc(Cc2n[nH]c(=O)c3c2CCCC3)c1)c1ccc2ccccc2c1` [Example 231, N-(3-((4-oxo-3,4,5,6,7,8-hexahydrophthalazin-1-yl)methyl)phenyl)-2-naphthamide] was tested. Which Ki did it give?
Answer: The Ki was 110 nM.

Question: Which Ki does the source give for `CC(C)(C)c1ccc(C(=O)Nc2cccc(Cc3n[nH]c(=O)c4c3CCCC4)c2)cc1` [Example 233, 4-tert-butyl-N-(3-((4-oxo-3,4,5,6,7,8-hexahydrophthalazin-1-yl)methyl)phenyl)benzamide] here?
Answer: The Ki was 158 nM.

Question: With `CC(=O)Nc1ccc(C(=O)Nc2cccc(Cc3n[nH]c(=O)c4c3CCCC4)c2)cc1` [Example 234, 4-(acetylamino)-N-(3-((4-oxo-3,4,5,6,7,8-hexahydrophthalazin-1-yl)methyl)phenyl)benzamide] as the compound, how does the Ki read?
Answer: Its Ki is 57 nM.

Question: How did the Ki turn out when `CCCOc1ccc(C(=O)Nc2cccc(Cc3n[nH]c(=O)c4c3CCCC4)c2)cc1` [Example 235, N-(3-((4-oxo-3,4,5,6,7,8-hexahydrophthalazin-1-yl)methyl)phenyl)-4-propoxybenzamide] was run?
Answer: Its Ki is 198 nM.

Question: `O=C(Nc1cccc(Cc2n[nH]c(=O)c3c2CCCC3)c1)c1ccc2ccccc2c1O` [Example 236, 1-hydroxy-N-(3-((4-oxo-3,4,5,6,7,8-hexahydrophthalazin-1-yl)methyl)phenyl)-2-naphthamide] was tested. Which Ki did it give?
Answer: The Ki was 4 nM.

Question: With `CSc1ccc(Cl)c(C(=O)Nc2cccc(Cc3n[nH]c(=O)c4c3CCCC4)c2)c1` [Example 237, 2-chloro-5-(methylthio)-N-(3-((4-oxo-3,4,5,6,7,8-hexahydrophthalazin-1-yl)methyl)phenyl)benzamide] as the compound, how does the Ki read?
Answer: The Ki was 68 nM.

Question: For `CCOc1ccc(C(=O)Nc2cccc(Cc3n[nH]c(=O)c4c3CCCC4)c2)cc1OCC` [Example 238, 3,4-diethoxy-N-(3-((4-oxo-3,4,5,6,7,8-hexahydrophthalazin-1-yl)methyl)phenyl)benzamide], which Ki is on record?
Answer: The Ki was 47 nM.

Question: `O=C(Nc1cccc(Cc2n[nH]c(=O)c3c2CCCC3)c1)c1ccccc1Cc1ccccc1` [Example 239, 2-benzyl-N-(3-((4-oxo-3,4,5,6,7,8-hexahydrophthalazin-1-yl)methyl)phenyl)benzamide] was tested. Which Ki did it give?
Answer: The Ki was 554 nM.

Question: Which Ki does the source give for `O=C(Nc1cccc(Cc2n[nH]c(=O)c3c2CCCC3)c1)c1ccccc1Nc1ccccc1` [Example 240, 2-anilino-N-(3-((4-oxo-3,4,5,6,7,8-hexahydrophthalazin-1-yl)methyl)phenyl)benzamide] here?
Answer: Its Ki is 285 nM.

Question: How did the Ki turn out when `O=C(Nc1cccc(Cc2n[nH]c(=O)c3c2CCCC3)c1)c1ccccc1C(=O)c1ccccc1` [Example 241, 2-benzoyl-N-(3-((4-oxo-3,4,5,6,7,8-hexahydrophthalazin-1-yl)methyl)phenyl)benzamide] was run?
Answer: Its Ki is 1450 nM.

Question: Which Ki does the source give for `O=C(Nc1cccc(Cc2n[nH]c(=O)c3c2CCCC3)c1)c1ccccc1CCc1ccccc1` [Example 242, N-(3-((4-oxo-3,4,5,6,7,8-hexahydrophthalazin-1-yl)methyl)phenyl)-2-(2-phenylethyl)benzamide] here?
Answer: Its Ki is 610 nM.

Question: Which Ki does the source give for `O=C(Nc1cccc(Cc2n[nH]c(=O)c3c2CCCC3)c1)c1cc(Br)ccc1Cl` [Example 243, 5-bromo-2-chloro-N-(3-((4-oxo-3,4,5,6,7,8-hexahydrophthalazin-1-yl)methyl)phenyl)benzamide] here?
Answer: Its Ki is 92 nM.

Question: For `Cc1ccc(C(=O)c2ccccc2C(=O)Nc2cccc(Cc3n[nH]c(=O)c4c3CCCC4)c2)cc1` [Example 244, 2-(4-methylbenzoyl)-N-(3-((4-oxo-3,4,5,6,7,8-hexahydrophthalazin-1-yl)methyl)phenyl)benzamide], which Ki is on record?
Answer: The Ki was 2340 nM.

Question: Which Ki does the source give for `O=C(Nc1cccc(Cc2n[nH]c(=O)c3c2CCCC3)c1)c1ccccc1I` [Example 245, 2-iodo-N-(3-((4-oxo-3,4,5,6,7,8-hexahydrophthalazin-1-yl)methyl)phenyl)benzamide] here?
Answer: The Ki was 963 nM.

Question: With `O=C(Nc1cccc(Cc2n[nH]c(=O)c3c2CCCC3)c1)c1cccc(I)c1` [Example 246, 3-iodo-N-(3-((4-oxo-3,4,5,6,7,8-hexahydrophthalazin-1-yl)methyl)phenyl)benzamide] as the compound, how does the Ki read?
Answer: The Ki was 52 nM.

Question: How did the Ki turn out when `O=C(Nc1cccc(Cc2n[nH]c(=O)c3c2CCCC3)c1)c1ccc(I)cc1` [Example 247, 4-iodo-N-(3-((4-oxo-3,4,5,6,7,8-hexahydrophthalazin-1-yl)methyl)phenyl)benzamide] was run?
Answer: Its Ki is 48 nM.

Question: For `CC(=O)Nc1cccc(-c2cc(Cc3n[nH]c(=O)c4c3CCCC4)ccc2F)c1` [Example 248], which Ki is on record?
Answer: Its Ki is 2 nM.
